Reference: patent US7825121B2, “Piperazine derivatives useful as CCR5 antagonists” (Schering Corporation, priority 1999, dated 2010)
Where a name gives a salt, the structure may show the parent alone. Each block holds one compound with its values, some of them ahead of it.

Legend:
[1] = biological target: T1, human CCR5 chemokine receptor (Homo sapiens, UniProt P51681); test: CCR5 membrane binding assay (inhibition of RANTES binding); details: 125I-RANTES, membranes from NIH 3T3 cells expressing human CCR5
T1 construct: expressed in transfected cells; host or cells: NIH 3T3 cells (murine), membranes
Procedure: CCR5 Membrane Binding Assay:
A high throughput screen utilizing a CCR5 membrane binding assay identifies inhibitors of RANTES binding. This assay utilizes membranes prepared from NIH 3T3 cells expressing the human CCR5 chemokine receptor which have the ability to bind to RANTES, a natural ligand for the receptor. […] Compounds are serially diluted over a wide range of 0.001 ug/ml to 1 ug/ml and tested in triplicates. Reaction cocktails are harvested through glass fiber filters, and washed thoroughly.
In the table, “Ex. No.” stands for “Example Number” and “nM” stands for “nanomolar.”

[2] = Profiling of Vicriviroc and metabolites in plasma, urine and feces, rat; format: in vivo, Rat (Sprague Dawley)
Procedure: (§1) HPLC column was maintained at room temperature for all LC-MS and LC-MS^n experiments. The mobile phase, which consisted of 95% 10-mM ammonium acetate (pH 6.0) containing 5% acetonitrile (A) and 95% acetonitrile and 5% water (B), was maintained at a constant flow rate (1 mL/min). For all LC-MS experiments, the column effluent was split to divert 20-25% into TSQ Quantum (ThermoElectron, San Jose, Calif.) mass spectrometer and the balance into a Flow Scintillation Analyzer (FSA) analyzer.
(§2) All LC-MS and LC-MS/MS experiments were performed using a TSQ mass spectrometer (ThermoElectron, San Jose, Calif.) nominally operated under the conditions listed below:
(§3) Radiochromatograms from study samples were examined to locate radioactive peaks corresponding to metabolites. After correcting for the delay time (0.2-0.5 min), each radiolabelled peak was examined for possible molecular ions related to the drug and/or its putative metabolites.

[3] = Profiling of Vicriviroc and metabolites in plasma, urine and feces, monkey; format: in vivo, Monkey (Cynomolgus macaque)
Procedure: as §1, §2, §3

[4] = Profiling of Vicriviroc and metabolites in plasma, urine and feces, human; format: in vivo
Procedure: as §1, §2, §3

[5] = Excretion of radioactivity after single oral dose of 14C-Vicriviroc, monkey; format: in vivo, Monkey (Cynomolgus macaque); details: 5 mg/kg single oral, total 0-432 hr
Procedure: (§4) [drawing 410] was synthesized at Schering-Plough Research Institute (Kenilworth, N.J.) and had >97% radiochemical purity.
(§5) Sample Collection: Urine and feces over selected intervals and blood at selected time points were collected from healthy male volunteers, monkeys and rats through 336-hr, 432-hr and 168-hr post dose, respectively. Radioactivity: Total radioactivity was measured using liquid scintillation spectrometer (LSS). Sample Processing for Profiling and Characterization of Metabolites: Sample Pooling: For each species, plasma samples were pooled across subjects/animals by time point. All the other matrices were first pooled for a desired collection interval within each subject/animal and then across subjects/animals to obtain a composite sample containing >90% of the radioactivity excreted in each respective matrix.

[6] = Excretion of radioactivity after single oral dose of 14C-Vicriviroc, rat; format: in vivo, Rat (Sprague Dawley); details: 6 mg/kg single oral, total 0-168 hr
Procedure: as §4, §5

T1 sequence (P51681 whole entry): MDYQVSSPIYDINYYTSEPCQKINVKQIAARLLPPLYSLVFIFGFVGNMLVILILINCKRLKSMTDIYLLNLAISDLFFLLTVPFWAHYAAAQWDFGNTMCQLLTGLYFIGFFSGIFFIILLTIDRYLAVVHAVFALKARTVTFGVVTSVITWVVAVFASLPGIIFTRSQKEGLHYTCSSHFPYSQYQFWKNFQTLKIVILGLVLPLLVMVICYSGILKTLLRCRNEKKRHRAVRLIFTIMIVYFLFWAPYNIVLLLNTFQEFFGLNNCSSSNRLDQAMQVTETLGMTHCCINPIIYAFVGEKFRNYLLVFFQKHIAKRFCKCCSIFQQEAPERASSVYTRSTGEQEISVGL

melting point: 84 to 90 °C
Compound: C[C@H]1CN(C2(C)CCN(C(=O)C3(c4ccc(C#N)cc4)CC3)CC2)CCN1C(c1ccccc1)c1ccccc1 [Example 30E]

melting point: 241 °C
Compound: CCC[C@@H](c1ccc(OC(F)(F)F)cc1)N1CCN(C2(C)CCN(C(=O)c3c(C)ncnc3C)CC2)C[C@@H]1C [Example 30A]

melting point: 177 to 189 °C
Compound: CCNC(=O)Nc1cc(C)c(C(=O)N2CCC(C)(N3CCN(C(c4ccccc4)c4ccccc4)[C@@H](C)C3)CC2)c(C)c1 [Example 30D]

melting point: 180 to 192 °C
Compound: Cc1ncnc(C)c1C(=O)N1CCC(C)(N2CCN(C(c3ccc(C(F)(F)F)cc3)c3ccc(C(F)(F)F)cc3)[C@@H](C)C2)CC1 [Example 30F]

melting point: 178 to 188 °C
Compound: CCNC(=O)N(C)c1cc(C)c(C(=O)N2CCC(C)(N3CCN(C(c4ccccc4)c4ccccc4)[C@@H](C)C3)CC2)c(C)c1 [Example 30H]

melting point: 219 °C
Compound: CCC[C@@H](c1ccc(OC(F)(F)F)cc1)N1CCN(C2(C)CCN(C(=O)c3c(C)cc(NC(=O)NCC)cc3C)CC2)C[C@@H]1C [Example 30B]

melting point: 175 to 178 °C
Compound: Cc1ncnc(C)c1C(=O)N1CCC(C)(N2CCN(C(c3ccccc3)c3ccccc3)[C@@H](C)C2)CC1 [Example 30C]

Further lines, the compound ahead of its results:

Compound: Cc1cccc(C)c1C(=O)N1CCC(N2CCN([C@@H](C)c3ccc(I)cc3)[C@@H](C)C2)CC1 [Example 11]
Ki [1]: 10.5 nM

Compound: CC(=O)c1ccc([C@H](C)N2CCN(C3(C)CCN(C(=O)c4c(C)cccc4C)CC3)C[C@@H]2C)cc1 [Example 22]
melting point: 80 to 85 °C

Compound: Cc1ncnc(C)c1C(=O)N1CCC(C)(N2CCN(C(COC3OC(C(=O)O)C(O)C(O)C3O)c3ccc(C(F)(F)F)cc3)C(C)C2)CC1 (centres unmarked) [Example M35, O-desmethyl-VIC-glucuronide]
circulating drug derived component in plasma ([2]; rat plasma): only detected in trace quantities
% of the dose in urine ([2]; rat urine): less than 1%
circulating drug derived component in plasma ([3]; monkey plasma): prominent circulating metabolite
% of the dose in urine ([3]; monkey urine): 3%
circulating drug derived component in plasma ([4]; human plasma): prominent circulating metabolite
% of the dose in urine ([4]; human urine): 11%

Compound: Cc1ccnc(C)c1C(=O)N1CCC(N2CCN(C(c3ccccc3)c3ccccc3)[C@@H](C)C2)CC1 (as salt: hydrochloride) [Example 3C]
melting point: 180 to 188 °C (dec.)

Compound: Cc1ccnc(C)c1C(=O)N1CCC(N2CCN(C(c3ccccc3)c3ccccc3)[C@@H](C)C2)CC1 [Example 3C]
Ki [1]: 9.97 nM

Compound: Cc1cccc(C)c1C(=O)N1CCC(N2CCN([C@@H](C)c3ccc(-c4ccccc4)cc3)[C@@H](C)C2)CC1 [Example 16]
melting point: 190 °C
Ki [1]: 60 nM

Compound: Cc1ncnc(C)c1C(=O)N1CCC(C)(N2CCN([C@@H](Cc3ccccc3)c3ccc(C(F)(F)F)cc3)[C@@H](C)C2)CC1
melting point: 187 to 196 °C

Compound: Cc1cccc(C)c1C(=O)N1CCC(N2CCN([C@@H](C)c3ccc(Cc4ccc(Cl)cc4)cc3)[C@@H](C)C2)CC1 [Example 17]
melting point: 170 °C (dec.)

Compound: CC[C@@H](c1ccc(OC(F)(F)F)cc1)N1CCN(C2CCN(C(=O)c3c(C)ncnc3C)CC2)C[C@@H]1C [Example 6C]
melting point: 225 °C
Ki [1]: 30 nM

Compound: CC(=O)c1ccc([C@H](C)N2CCN(C3CCN(C(=O)c4c(N)cccc4Cl)CC3)C[C@@H]2C)cc1 [Example 18]
melting point: 210 °C

Compound: COC[C@@H](c1ccc(C(F)(F)F)cc1)N1CCN(C2(C)CCN(C(=O)c3c(C)ncnc3C)CC2)C[C@@H]1C [^14C-Vicriviroc, 1-[(4,6-dimethyl-5-pyrimidinyl)carbonyl]-4-[4-[2-methoxy-1 (R)-[4-(trifluoromethyl)phenyl]ethyl]-3(S)-methyl-1-piperazinyl]-4-methylpiperidine]
Excretion of radioactivity as % of dose, feces ([5]; monkey female): 56.4 % of dose
Excretion of radioactivity as % of dose, urine ([5]; monkey female): 25.8 % of dose
Excretion of radioactivity as % of dose, feces ([5]; monkey male): 48.6 % of dose
Excretion of radioactivity as % of dose, urine ([5]; monkey male): 26.3 % of dose
Excretion of radioactivity as % of dose, feces ([6]; rat female): 72.9 % of dose
Excretion of radioactivity as % of dose, urine ([6]; rat female): 15.6 % of dose
Excretion of radioactivity as % of dose, feces ([6]; rat male): 69.1 % of dose
Excretion of radioactivity as % of dose, urine ([6]; rat male): 18.0 % of dose

Compound: CCC[C@@H](c1ccc(OC(F)(F)F)cc1)N1CCN(C2(C)CCN(C(=O)c3c(C)cccc3C)CC2)C[C@@H]1C [Example 30]
melting point: 237 °C

Compound: Cc1cccc(C)c1C(=O)N1CCC(N2CCN([C@@H](C)c3ccccc3)[C@@H](C)C2)CC1 [Example 15]
melting point: 195 °C

Compound: Cc1cccc(C)c1C(=O)N1CCC(N2CCN([C@@H](C)c3ccc(Cl)cc3)[C@@H](C)C2)CC1 [Example 13]
melting point: 180 °C (dec.)
